Assay results as given in patent US10570457B2, “Methods for predicting drug responsiveness” (Medical Prognosis Institute A/S, priority 2014, dated 2020).

How the values were obtained:
[1] = test system: colorectal cancer; details: cited from earlier work
[2] = test system: colorectal cancer patients; assay: Survival of colon cancer patients treated with 5-FU, grouped by NT5E-predicted sensitivity; assay type: in vivo, human; details: adjuvant chemotherapy with 5-FU; NT5E expression below vs above population median; 232 colorectal cancer biopsies; p=0.006
Method: A clinical dataset of 232 pre-treatment fresh frozen colorectal cancer surgical biopsies was downloaded from Gene Expression Omnibus under accession number GSE17538. The biopsies were analyzed using the Affymetrix HG-U133-Plus_2 array type. The expression of NT5E was determined by reading the intensity of Affymetrix probeset 203939_at, which is predicted to be more highly expressed in 5-FU-resistant patients. Patients were predicted sensitive to 5-FU if the expression of NT5E was below the population median. Patients were predicted resistant if expression of NT5E was above the population median.

[3] = biological target: T1, topoisomerase I (Homo sapiens, UniProt P11387); details: metabolite of irinotecan; cited from earlier work
T1 sequence (P11387 1-765): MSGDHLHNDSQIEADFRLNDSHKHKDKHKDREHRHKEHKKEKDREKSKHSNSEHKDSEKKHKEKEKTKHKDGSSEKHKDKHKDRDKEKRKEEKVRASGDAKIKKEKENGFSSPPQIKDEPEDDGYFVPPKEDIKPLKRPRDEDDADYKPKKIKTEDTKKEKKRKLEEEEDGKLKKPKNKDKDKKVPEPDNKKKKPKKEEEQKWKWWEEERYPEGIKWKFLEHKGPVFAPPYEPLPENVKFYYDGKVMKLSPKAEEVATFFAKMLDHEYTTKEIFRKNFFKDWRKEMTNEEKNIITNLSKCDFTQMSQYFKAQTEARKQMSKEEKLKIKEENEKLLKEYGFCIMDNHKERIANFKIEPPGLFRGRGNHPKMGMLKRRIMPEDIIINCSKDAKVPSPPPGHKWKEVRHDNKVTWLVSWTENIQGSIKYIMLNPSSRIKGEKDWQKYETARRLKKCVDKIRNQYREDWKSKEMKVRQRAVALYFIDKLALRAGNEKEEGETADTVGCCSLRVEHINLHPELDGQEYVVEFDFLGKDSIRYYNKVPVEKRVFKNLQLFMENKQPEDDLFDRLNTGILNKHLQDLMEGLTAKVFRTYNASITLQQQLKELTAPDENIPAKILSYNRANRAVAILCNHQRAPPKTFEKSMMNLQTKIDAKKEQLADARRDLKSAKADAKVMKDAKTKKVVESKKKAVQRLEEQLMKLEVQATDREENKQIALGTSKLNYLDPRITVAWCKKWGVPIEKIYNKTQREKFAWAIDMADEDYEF

SMILES | Survival effect of 5-FU treatment ([1]; adjuvant setting of colorectal cancer) | Response rate, 5-FU monotherapy ([1]; metastatic colorectal cancer) | Survival of predicted-sensitive group versus predicted-resistant group [2] | Potency as a topoisomerase inhibitor relative to irinotecan [3]
O=c1[nH]cc(F)c(=O)[nH]1 [5-Fluorouracil (5-FU), 5-fluorouracil] | survival benefit | 10-15% | significantly higher rate of survival | 
CCc1c2c(nc3ccc(O)cc13)-c1cc3c(c(=O)n1C2)COC(=O)[C@]3(O)CC [SN-38] |  |  |  | significantly greater potency
